Where “and” joins values, the source holds several entries; their conditions need not be identical. Identical values can stand only once. Where a SMILES comes first, the peptide text is derived from it. The star is where a group is joined. 5FAM = O=C1OC2(c3ccc(O)cc3Oc3cc(O)ccc32)c2ccc(C(=O)*)cc21; X1 = CN(C)c1ccc(/N=N/c2ccc(C(=O)*)cc2)cc1
Key:
MCF-7 cells = assay: In vitro cytostatic activity (MTT) on MCF-7; format: cell-based, human; settings: 3 h incubation, then 3 days in serum-containing medium, MTT assay, ± sd, three independent experiments with four parallels
Method: The cells (HL-60 or MCF-7) were grown to confluency and were plated into 96-well plate with initial cell number of 5 × 10^3 per well. After 24 h incubation at 37 °C, cells were treated with the compounds at 1.28 × 10^–3–100 μM concentration range for 3 h in 200 μL final volume. Control cells were treated with serum free medium at 37 °C for 3 h. After incubation the cells were washed twice with serum free medium. For the analysis of the in vitro cytostatic effect, cells were cultured for an additional 72 h in serum containing medium. On day 4, MTT assay was carried out to determine the IC50 values of the compounds. Briefly, 45 μL of MTT solution was added to each well (2 mg/mL, dissolved in serum-free medium). […] The precipitated purple crystals were dissolved in 100 μL DMSO and the absorbance was determined at λ = 540 nm and λ = 620 nm using ELISA plate reader (iEMSReader, Labsystems, Finland). The percent of cytostasis was calculated using the following equation: Cytostatic effect (%) = [1 − (ODtreated/ODcontrol)] × 100; where ODtreated and ODcontrol correspond to the optical densities of the treated and the untreated control cells, respectively. […] The curves were defined using MicrocalTM Origin (version 9.2) software: cytostasis was plotted as a function of concentration, fitted to a sigmoidal curve, and based on this curve, the IC50 value was determined.

MDA-MB-231 cells = assay: In vitro cytostatic activity (MTT) on MDA-MB-231; format: cell-based, human; settings: 3 h incubation, then 3 days in serum-containing medium, MTT assay, ± sd
HL-60 cells [1] = assay: In vitro cytostatic activity (MTT) on HL-60; format: cell-based, human; settings: HL-60; 3 h incubation, then 3 days in serum-containing medium; MTT assay; ± sd, three independent experiments with four parallels
Method: The cells (HL-60 or MCF-7) were grown to confluency and were plated into 96-well plate with initial cell number of 5 × 10^3 per well. After 24 h incubation at 37 °C, cells were treated with the compounds at 1.28 × 10^–3–100 μM concentration range for 3 h in 200 μL final volume. Control cells were treated with serum free medium at 37 °C for 3 h. After incubation the cells were washed twice with serum free medium. For the analysis of the in vitro cytostatic effect, cells were cultured for an additional 72 h in serum containing medium. On day 4, MTT assay was carried out to determine the IC50 values of the compounds. Briefly, 45 μL of MTT solution was added to each well (2 mg/mL, dissolved in serum-free medium). Following the 4 h incubation, plates were centrifuged at 900 g for 5 min, and the supernatant was removed. The precipitated purple crystals were dissolved in 100 μL DMSO and the absorbance was determined at λ = 540 nm and λ = 620 nm using ELISA plate reader (iEMSReader, Labsystems, Finland). The percent of cytostasis was calculated using the following equation: Cytostatic effect (%) = [1 − (ODtreated/ODcontrol)] × 100; where ODtreated and ODcontrol correspond to the optical densities of the treated and the untreated control cells, respectively. In each case three independent experiments were carried out with four parallel measurements. […] The curves were defined using MicrocalTM Origin (version 9.2) software: cytostasis was plotted as a function of concentration, fitted to a sigmoidal curve, and based on this curve, the IC50 value was determined.

HL-60 cells [2] = assay: Cellular uptake by flow cytometry on HL-60 cells; format: cell-based, human; settings: HL-60, 90 min, 37 °C, serum-free, concentrations of the two values not stated, Dabcyl quenches Cf
Method: HL-60 cells were cultured as described above. To study the cellular uptake of fluorescent labelled compounds, 10^5 cells per well were plated on 24-well plates. After 24 h incubation at 37 °C, cells were treated with the compounds solved in the corresponding serum-free media for 90 min. The cellular uptake was analysed at 1, 5 and 10 µM concentrations. Cells treated with serum-free media for 90 min were used as control. After incubation, treatment solutions were removed and the cells were treated with 100 μL trypsin for 2 min to remove the membrane proteins in order to eliminate non-specific binding of conjugates. The effect of trypsin was terminated by 900 μL HPMI (glucose, NaHCO3, NaCl, HEPES, KCl, MgCl2, CaCl2, Na2HPO4·2H2O) (Kapus et al. [1994]) containing 10% foetal calf serum, and the cells were transferred from the plate to FACS-tubes. Cells were centrifuged at 216 g at 4 °C for 5 min and the supernatant was removed. After this procedure, cells were resuspended in 500 µL HPMI, and the intracellular fluorescence intensity of HL-60 cells was monitored (on channel FITC LP505; emission at λ = 505 nm; LP 505, BP 530/30) by flow cytometry (BD LSR II, BD Bioscience, San Jose, CA, equipped with 488 nm; Coherent Sapphire, 22 mW laser.) which is proportional to the cellular uptake. Data were analysed with FACSDiVa 5.0 software.

CHO-K1 cells [3] = assay: Absolute quantification of total internalised peptide by fluorometry; settings: for Total (37 °C–4 °C) (pmoles) Endocyt. / 4 °C/37 °C (Fluoro): CHO-K1, 60 min; for Total (37 °C–4 °C) (pmoles) Endocyt.: difference of fluorometry values at 37 °C and 4 °C; for 4 °C/37 °C (Fluoro): internalisation ratio by fluorometry; for Total 4 °C (pmoles) Transloc. / Total 37 °C (pmoles) Endocyt. + Transloc.: one million CHO-K1 cells, DMEM-F12, 60 min, cell lysis, fluorometry 525 nm vs calibration curve, mean values; for Total 4 °C (pmoles) Transloc.: pronase wash; for Total 37 °C (pmoles) Endocyt. + Transloc.: trypsin wash
Method: We used the quantification method described earlier (Illien et al. [2016]). […] After incubation with peptides and washing the cells with HBSS, 500 μL 0.05% trypsin/EDTA 0.05% (37 °C) or 500 µL pronase 0.05% in 100 mM Tris pH 7.4 (4 °C) was added for 5 min to hydrolyze the remaining extracellular peptide, the membrane-bound peptide and to detach cells. After addition of 100 µL enzyme inhibitors (complete mini at 4 °C (Roche) or trypsin inhibitor (soybean inhibitor 5 mg/mL) at 37 °C mixed with 100 μL bovine serum albumin (1 mg/mL), cells were transferred into a microtube, centrifuged, washed with 1 mL 50 mM Tris buffer pH 7.4, 0.1% BSA, and lysed in 200 μL 50 mM Tris pH 7.4, 1 M NaCl, 1% Nonident P40. The samples were then sonicated for 15 min (to homogenise samples) and centrifugated for 10 min at 16.000 g. Fluorescence intensity in the supernatants was monitored with a MOS 200 M fluorimeter (Biologic SAS) and the maximal intensity was detected around λ = 525 nm. The maximal intensity was retained for the calibration curve and for quantification of samples. The amount of internalised peptides was calculated by comparing the fluorescence intensity of the sample with the calibration curve. For the calibration curve, we prepared a range of peptide amounts (from 2 to 500 pmol) in the lysis buffer (50 mM Tris pH 7.4, 1 M NaCl, 1% Nonidet P40) in the presence of one million suspended cells. The samples were sonicated 15 min and centrifuged at 16.000 g for 10 min. Fluorescence intensity in the supernatants was monitored with a MOS 200 M fluorimeter (Biologic SAS, France) and the maximal intensity was detected around λ = 525 nm. The fluorescence signal of peptides only was obtained by subtracting the fluorescence intensity of cell lysates (autofluorescence) from the fluorescence intensity of the sample.

CHO-K1 cells [4] = assay: Relative quantification of total internalised peptide by flow cytometry; settings: CHO-K1, 1 h, DMEM-F12, internalisation ratio by flow cytometry, intact cells, 20.000 cells
Method: After incubation and washing the cells with HBSS, 500 μL 0.05% trypsin/EDTA 0.05% (37 °C) or 500 µL pronase 0.05% in 100 mM Tris-buffer (4 °C) was added for 5 min to hydrolyze the remaining extracellular peptide, the membrane-bound peptide and to detach cells. After addition of 100 µL enzyme inhibitors (complete mini at 4 °C (Roche) or trypsin inhibitor (soybean inhibitor 5 mg/mL) at 37 °C mixed with 100 μL bovine serum albumin (1 mg/mL). Cells were transferred into a microtube, centrifuged, washed with 1 mL 50 mM Tris-buffer pH 7.4, 0.1% BSA, and the cell pellet was suspended in 400 μL of PBS. The fluorescence of individual cells was analysed with a FACS Calibur flow cytometer. 20.000 cells were measured for each experimental condition. The mean fluorescence of a sample was obtained by subtracting the autofluorescence of cells from the measured mean fluorescence of cells in the presence of the peptide.

In the case of “Dabcyl–RRRRRRK(MTX)–NH2 [Dabcyl–Arg6–Lys(MTX)–NH2]”, the IC50 (MCF-7 cells) is reported as 46.4 ± 18.5 µM and the IC50 (MDA-MB-231 cells) is reported as 50.2 ± 16 µM.

`COc1cccc2c1C(=O)c1c(O)c3c(c(O)c1C2=O)C[C@@](O)(C(C)=O)C[C@@H]3O[C@H]1C[C@H](NC(=O)CCC(=O)O)[C@H](O)[C@H](C)O1` [Suc–Dau, reference compound] gave an IC50 (HL-60 cells [1]) of 33.5 ± 1.1 µM, an IC50 (MCF-7 cells) of 24.5 ± 7.1 µM and an IC50 (MDA-MB-231 cells) greater than 100 µM.

In the case of “Dabcyl–RRRRK(MTX)–NH2 [Dabcyl–Arg4–Lys(MTX)–NH2]”, the IC50 (MDA-MB-231 cells) is reported as 70.9 ± 30.1 µM.

With `CN(C)c1ccc(/N=N/c2ccc(C(=O)N[C@@H](CCCNC(=N)N)C(=O)N[C@@H](CCCNC(=N)N)C(=O)N[C@@H](CCCNC(=N)N)C(=O)N[C@@H](CCCNC(=N)N)C(=O)N[C@@H](CCCCNC(=O)c3ccc4c(c3)C(=O)OC43c4ccc(O)cc4Oc4cc(O)ccc43)C(N)=O)cc2)cc1` [Dabcyl–Arg4–Lys(Cf)–NH2] (X1-RRRRK(5FAM)-NH2) the “Fluorescence intensity of the cells, times higher than hexaarginine” value (HL-60 cells [2]) was 1.6 times and 2.8 times, the “Total (37 °C–4 °C) (pmoles) Endocyt.” value (CHO-K1 cells [3]; [peptide] 1 μM) was 0.3 pmol and the “4 °C/37 °C (Fluoro)” value (CHO-K1 cells [3]; [peptide] 1 μM) was 0.57. The “Total 4 °C (pmoles) Transloc.” value (CHO-K1 cells [3]; [peptide] 1 μM) was 0.4 ± 0.06 pmol, the “Total 37 °C (pmoles) Endocyt. + Transloc.” value (“Total 37 °C” below) (CHO-K1 cells [3]; [peptide] 1 μM) was 0.7 ± 0.1 pmol and the “Total (37 °C–4 °C) (pmoles) Endocyt.” value (CHO-K1 cells [3]; [peptide] 2.5 μM) was 1.3 pmol. For the same compound, the “4 °C/37 °C (Fluoro)” value (CHO-K1 cells [3]; [peptide] 2.5 μM) was 0.43, the “Total 4 °C (pmoles) Transloc.” value (CHO-K1 cells [3]; [peptide] 2.5 μM) was 0.9 ± 0.1 pmol and the “Total 37 °C” value (CHO-K1 cells [3]; [peptide] 2.5 μM) was 2.2 ± 0.2 pmol. For the same compound, the “Total (37 °C–4 °C) (pmoles) Endocyt.” value (CHO-K1 cells [3]; [peptide] 5 μM) was 6 pmol, the “4 °C/37 °C (Fluoro)” value (CHO-K1 cells [3]; [peptide] 5 μM) was 0.22 and the “Total 4 °C (pmoles) Transloc.” value (CHO-K1 cells [3]; [peptide] 5 μM) was 1.8 ± 0.1 pmol. For the same compound, the “Total 37 °C” value (CHO-K1 cells [3]; [peptide] 5 μM) was 7.8 ± 0.9 pmol, the “Total (37 °C–4 °C) (pmoles) Endocyt.” value (CHO-K1 cells [3]; [peptide] 10 μM) was 26 pmol and the “4 °C/37 °C (Fluoro)” value (CHO-K1 cells [3]; [peptide] 10 μM) was 0.14. The “Total 4 °C (pmoles) Transloc.” value (CHO-K1 cells [3]; [peptide] 10 μM) was 4.2 ± 0.3 pmol, the “Total 37 °C” value (CHO-K1 cells [3]; [peptide] 10 μM) was 30 ± 3.3 pmol and the “4 °C/37 °C (Flow cyto.)” value (CHO-K1 cells [4]; [peptide] 1 μM) was 0.17. The “4 °C/37 °C (Flow cyto.)” value (CHO-K1 cells [4]; [peptide] 2.5 μM) was 0.12, the “4 °C/37 °C (Flow cyto.)” value (CHO-K1 cells [4]; [peptide] 5 μM) was 0.10 and the “4 °C/37 °C (Flow cyto.)” value (CHO-K1 cells [4]; [peptide] 10 μM) was 0.04.

From PMC8241751, “Influence of the Dabcyl group on the cellular uptake of cationic peptides: short oligoarginines as efficient cell-penetrating peptides” (Amino Acids, 2021)
